Source: ChEMBL document CHEMBL5634141 (Eur J Med Chem, 2023)
Calls of active or inactive are those of the source. The rule behind the calls is not given here.

What was measured:
MIA PaCa-2 [1] = assay: Antiproliferative activity against human MIA PaCa-2 cells expressing KRAS G12C mutant assessed as relative cell viability at 30 nM incubated for 72 hrs by CCK-8 assay; format: functional; conditions: read-out: Activity
MIA PaCa-2 [2] = assay: Induction of apoptosis in human MIA PaCa-2 cells assessed as late apoptotic cells at 30 nM incubated for 48 hrs by Annexin V-FITC staining based flow cytometry analysis (reference value: 5.69 %); format: functional
NCI-H358 [3] = assay: Synergistic antiproliferative activity against human NCI-H358 cells expressing KRAS G12C mutant assessed as combination index incubated for 72 hrs in presence of AZD4573 by CCK-8 assay; format: functional
MIA PaCa-2 [4] = assay: Induction of apoptosis in human MIA PaCa-2 cells assessed as viable cells at 30 nM incubated for 48 hrs by Annexin V-FITC staining based flow cytometry analysis (reference value: 91.5 %); format: functional; conditions: read-out: Activity
NCI-H358 [5] = assay: Induction of apoptosis in human NCI-H358 cells assessed as necrotic cells at 30 nM incubated for 48 hrs by Annexin V-FITC staining based flow cytometry analysis (reference value: 1.62 %); format: functional
Mus musculus = assay: In vivo PROTAC activity at VHL/KRAS G12C mutant in BALB/c nude mouse xenografted with human MIA PaCa-2 cells assessed as decrease in AKT phosphorylation at 10 to 30 mg/kg, ip administered for 16 days by Western blot analysis; format: functional, organism-based; conditions: dose 10-30 mg/kg, time 16.0 day
MIA PaCa-2 [6] = assay: Antitumor activity against human MIA PaCa-2 cells xenografted in BALB/c nude mouse assessed as increase in percentage of cleaved-caspase 3-positive cells at 10 to 30 mg/kg, ip administered for 16 days by immunohistochemical staining analysis; format: functional, organism-based; conditions: dose 10-30 mg/kg, time 16.0 day
[7] = system: von Hippel-Lindau disease tumor suppressor/GTPase KRas (Homo sapiens), P01116+P40337 [G12C]; assay: PROTAC activity at VHL/KRAS G12C mutant in human MIA PaCa-2 cells assessed as induction of protein degradation in presence of MLN4924 by Western blot analysis; format: cell-based
MIA PaCa-2 [8] = assay: Antitumor activity against human MIA PaCa-2 cells xenografted in BALB/c nude mouse assessed as reduction in number of tumor foci at 10 to 30 mg/kg, ip administered for 16 days by hematoxylin and eosin staining based analysis; format: functional, organism-based; conditions: dose 10-30 mg/kg, time 16.0 day
MIA PaCa-2 [9] = assay: Inhibition of colony formation in human MIA PaCa-2 cells expressing KRAS G12C mutant assessed as reduction in cell number at 30 nM incubated for 14 days in presence of linsitinib by crystal violet staining based analysis; format: functional; conditions: time 14.0 day
NCI-H358 [10] = assay: Induction of apoptosis in human NCI-H358 cells assessed as viable cells at 100 nM incubated for 48 hrs by Annexin V-FITC staining based flow cytometry analysis (reference value: 91.6 %); format: functional; conditions: read-out: Activity
[11] = system: von Hippel-Lindau disease tumor suppressor/GTPase KRas (Homo sapiens), P01116+P40337 [G12C]; assay: Protac activity at VHL/KRAS G12C mutant in human NCI-H358 cells assessed as induction of protein degradation at 100 nM preincubated with VH032 for 6 hrs followed by compound addition and measured after 48 hrs by Western blot analysis; format: cell-based
NCI-H358 [12] = assay: Antiproliferative activity against human NCI-H358 cells expressing KRAS G12C mutant assessed as reduction of cell growth by measuring fold decrease in IC50 incubated for 72 hrs in presence of Linsitinib by CCK-8 assay; format: functional
Calu-1 = assay: Antiproliferative activity against human Calu-1 cells expressing KRAS G12C mutant assessed as relative cell viability at 30 nM incubated for 72 hrs in presence of MK-2206 by CCK-8 assay; format: functional; conditions: read-out: Activity
[13] = Cytotoxicity against HEK293T cells assessed as inhibition of cell growth incubated for 72 hrs by CCK-8 assay; format: toxicity, cell-based, HEK-293T; conditions: human
MIA PaCa-2 [14] = assay: Antitumor activity against human MIA PaCa-2 cells xenografted in BALB/c nude mouse assessed as reduction in percentage of KRAS-positive cells at 10 to 30 mg/kg, ip administered for 16 days by immunohistochemical staining analysis; format: functional, organism-based; conditions: dose 10-30 mg/kg, time 16.0 day
MIA PaCa-2 [15] = assay: Induction of apoptosis in human MIA PaCa-2 cells assessed as viable cells at 300 nM incubated for 48 hrs by Annexin V-FITC staining based flow cytometry analysis (reference value: 91.5 %); format: functional; conditions: read-out: Activity
NCI-H358 [16] = assay: Antiproliferative activity against human NCI-H358 cells expressing KRAS G12C mutant assessed as relative cell viability at 30 nM incubated for 72 hrs in presence of MK-2206 by CCK-8 assay; format: functional; conditions: read-out: Activity
NCI-H358 [17] = assay: Antiproliferative activity against human NCI-H358 cells expressing KRAS G12C mutant assessed as inhibition of cell growth at 100 nM incubated for 8 days by CCK-8 assay; format: functional, cell-based; conditions: time 8.0 day
SW837 [18] = assay: Antiproliferative activity against human SW837 cells expressing KRAS G12C mutant assessed as relative cell viability at 30 nM incubated for 72 hrs in presence of MK-2206 by CCK-8 assay; format: functional; conditions: read-out: Activity
[19] = system: von Hippel-Lindau disease tumor suppressor/GTPase KRas (Homo sapiens), P01116+P40337 [G12C]; assay: PROTAC activity at VHL/KRAS G12C mutant in human NCI-H358 cells assessed as induction of protein degradation at 300 nM incubated for 24 hrs by Western blotting analysis relative to control; format: cell-based
[20] = Toxicity in BALB/c nude mouse xenografted with human MIA PaCa-2 cells at 10 to 30 mg/kg, ip measured after 16 days; format: organism-based; conditions: in vivo, 384 h, dose 10-30 mg/kg, time 16 day
NCI-H23 = assay: Antiproliferative activity against human NCI-H23 cells expressing KRAS G12C mutant assessed as relative cell viability at 30 nM incubated for 72 hrs in presence of MK-2206 by CCK-8 assay; format: functional; conditions: read-out: Activity
[21] = Toxicity in BALB/c nude mouse xenografted with human MIA PaCa-2 cells assessed as change in body weight at 10 to 30 mg/kg, ip measured after 16 days; format: organism-based; conditions: in vivo, 384 h, dose 10-30 mg/kg, time 16 day
SW837 [22] = assay: Antiproliferative activity against human SW837 cells expressing KRAS G12C mutant assessed as relative cell viability at 30 nM incubated for 72 hrs in presence of crizotinib by CCK-8 assay; format: functional; conditions: read-out: Activity
MIA PaCa-2 [23] = assay: Antiproliferative activity against human MIA PaCa-2 cells expressing KRAS G12C mutant assessed as inhibition of cell growth at 100 nM incubated for 8 days by CCK-8 assay; format: functional, cell-based; conditions: time 8.0 day
MIA PaCa-2 [24] = assay: Inhibition of colony formation in human MIA PaCa-2 cells expressing KRAS G12C mutant assessed as reduction in cell number at 30 nM incubated for 14 days in presence of SHP099 by crystal violet staining based analysis; format: functional; conditions: time 14.0 day
[25] = Half life in ICR mouse at 2 mg/kg, iv measured after 24 hrs by LC-MS/MS analysis; format: ADME, organism-based; conditions: in vivo
[26] = system: von Hippel-Lindau disease tumor suppressor/GTPase KRas (Homo sapiens), P01116+P40337 [G12C]; assay: PROTAC activity at VHL/KRAS G12C mutant in human MIA PaCa-2 cells assessed as inhibition of Akt phosphorylation at 100 nM incubated for 1 to 8 days by Western blotting analysis; format: cell-based; conditions: time 1-8 day
MIA PaCa-2 [27] = assay: Antitumor activity against human MIA PaCa-2 cells xenografted in BALB/c nude mouse assessed as reduction in percentage of Ki67-positive cells at 10 to 30 mg/kg, ip administered for 16 days by immunohistochemical staining analysis; format: functional, organism-based; conditions: dose 10-30 mg/kg, time 16.0 day

**Q.** For C=CC(=O)N1CCN(c2nc(=O)n(-c3c(C)ccnc3C(C)C)c3nc(-c4c(F)cccc4OCC4CCN(CCCC(=O)N[C@H](C(=O)N5C[C@H](O)C[C@H]5C(=O)NCc5ccc(-c6scnc6C)cc5)C(C)(C)C)CC4)c(F)cc23)[C@@H](C)C1, which viability at 0.03 µM (MIA PaCa-2 [1]) is on record?
**A.** Its viability at 0.03 µM is 0.71%.

**Q.** What about the Activity (MIA PaCa-2 [2]) of the same compound?
**A.** Its Activity is 7.18%.

**Q.** And the CI (NCI-H358 [3])?
**A.** Its CI is less than 1.

**Q.** And the viability at 0.03 µM (MIA PaCa-2 [4])?
**A.** The viability at 0.03 µM was 88.8%.

**Q.** What about the Activity (NCI-H358 [5]) of the same compound?
**A.** Its Activity is 1.01%.

**Q.** What about the Activity (Mus musculus) of the same compound?
**A.** The Activity was “Active”.

**Q.** What about the Activity (MIA PaCa-2 [6]) of the same compound?
**A.** The Activity was “Active”.

**Q.** What about the Activity [7] of the same compound?
**A.** The Activity was “inactive”.

**Q.** And the Activity (MIA PaCa-2 [8])?
**A.** Its Activity is “Active”.

**Q.** What about the inhibition (MIA PaCa-2 [9]) of the same compound?
**A.** The inhibition was “Active”.

**Q.** And the viability at 0.1 µM (NCI-H358 [10])?
**A.** The viability at 0.1 µM was 85.9%.

**Q.** What about the Activity [11] of the same compound?
**A.** Its Activity is “inactive”.

**Q.** And the “fold change (FC)” value (NCI-H358 [12])?
**A.** The value was roughly 4.

**Q.** And the viability at 0.03 µM (Calu-1)?
**A.** Its viability at 0.03 µM is 0.32%.

**Q.** And the IC50 at 72 h [13]?
**A.** Its IC50 at 72 h is greater than 10 µM.

**Q.** And the Activity (MIA PaCa-2 [14])?
**A.** Its Activity is “Active”.

**Q.** What about the viability at 0.3 µM (MIA PaCa-2 [15]) of the same compound?
**A.** Its viability at 0.3 µM is 66.4%.

**Q.** What about the viability at 0.03 µM (NCI-H358 [16]) of the same compound?
**A.** Its viability at 0.03 µM is 0.36%.

**Q.** And the Activity (NCI-H358 [17])?
**A.** The Activity was “Active”.

**Q.** What about the viability at 0.03 µM (SW837 [18]) of the same compound?
**A.** The viability at 0.03 µM was 0.34%.

**Q.** And the Activity [19]?
**A.** The Activity was 100%.

**Q.** What about the Activity [20] of the same compound?
**A.** The Activity was “Non-Toxic”.

**Q.** And the viability at 0.03 µM (NCI-H23)?
**A.** Its viability at 0.03 µM is 0.44%.

**Q.** And the Activity [21]?
**A.** Its Activity is “Non-Toxic”.

**Q.** What about the viability at 0.03 µM (SW837 [22]) of the same compound?
**A.** Its viability at 0.03 µM is 0.36%.

**Q.** And the Activity (MIA PaCa-2 [23])?
**A.** The Activity was “Active”.

**Q.** And the inhibition (MIA PaCa-2 [24])?
**A.** Its inhibition is “Active”.

**Q.** And the t1/2 [25]?
**A.** Its t1/2 is 52.6 min.

**Q.** What about the Activity [26] of the same compound?
**A.** The Activity was “Active”.

**Q.** And the Activity (MIA PaCa-2 [27])?
**A.** The Activity was “Active”.
